We go through 3 compounds from patent publication US20180185476A1, “METHODS AND PHARMACEUTICAL COMPOSITIONS FOR INHIBITING LYMPHOCYTE PROLIFERATION IN A SUBJECT IN NEED THEREOF” (INSERM (Institut National de la Sante et de la Recherche …, priority 2013, published 2018).

“Also recorded” adds a separate entry of the source.

One assay has as its system control T-cells. Briefly: T-cell proliferation in response to CD3 activation (CellTrace violet dye dilution). In kind it is cell-based, human. The settings on record: nucleotide added to deazauridine-treated control T cells. An excerpt:
Informed consent was obtained from donors, patients and families of patients. The study and protocols conform to the 1975 declaration of Helsinki as well as to local legislation and ethical guidelines. Genomic DNA extracted from peripheral blood cells was used for whole exome sequencing (Illumina) and sequencing of CTPS1. PBMCs were Ficoll-purified and activated with phytohemagglutinin (PHA) for 3 days, and then cultured in RPMI medium supplemented with 5% type AB human serum and IL-2 (100 UI/ml). T-cell blasts were restimulated with various mitogens and analyzed for memory and activation markers, calcium flux, cytokine secretions, apoptosis and TCR-CD3 signaling cascade molecules by immunoblotting. CTPS1 protein was detected by immunoblotting with an antibody raised against residues in the middle of the protein (341 to 355) (#SAB111071, Sigma). […] Proliferation was assessed after 96 hours by monitoring the dilution of CellTrace violet dye labelling. Cell cycle was determined by measuring the incorporation of EdU into newly synthesized DNA during 40 hours. The division indexes were calculated with the Flowjo software (BD Biosciences). […] In long-term expansions, cells were repeatedly stimulated with CD3/CD28-coated beads every 48 h and the transduced GFP^+ cells in the cultures were determined by every 24 h. […]

In another assay the test system is CTPS1-deficient cells. Briefly: Proliferation and CD25 expression of CTPS1-deficient T cells after addition of nucleotides or nucleosides. The class given is cell-based, human. The note with it: addition of nucleotides or nucleosides before stimulation. The text has this: Informed consent was obtained from donors, patients and families of patients. The study and protocols conform to the 1975 declaration of Helsinki as well as to local legislation and ethical guidelines. Genomic DNA extracted from peripheral blood cells was used for whole exome sequencing (Illumina) and sequencing of CTPS1. PBMCs were Ficoll-purified and activated with phytohemagglutinin (PHA) for 3 days, and then cultured in RPMI medium supplemented with 5% type AB human serum and IL-2 (100 UI/ml). T-cell blasts were restimulated with various mitogens and analyzed for memory and activation markers, calcium flux, cytokine secretions, apoptosis and TCR-CD3 signaling cascade molecules by immunoblotting. CTPS1 protein was detected by immunoblotting with an antibody raised against residues in the middle of the protein (341 to 355) (#SAB111071, Sigma). […] Proliferation was assessed after 96 hours by monitoring the dilution of CellTrace violet dye labelling. Cell cycle was determined by measuring the incorporation of EdU into newly synthesized DNA during 40 hours. The division indexes were calculated with the Flowjo software (BD Biosciences). For gene silencing of CTPS1 by shRNA expression (Openbiosystems), cells were transduced at day 3 of PHA stimulation. For rescue experiments, CTPS1-deficient cells were transduced with a lentiviral vector (Invitrogen) containing the CTPS1 gene and proliferation was performed 5 days after transduction. In long-term expansions, cells were repeatedly stimulated with CD3/CD28-coated beads every 48 h and the transduced GFP^+ cells in the cultures were determined by every 24 h. The intracellular content of nucleotides was measured by liquid chromatography-mass spectrometry (UPLC-xevoTQS, Waters). P values were calculated by two-tailed Student's t-test using PRISM software (GraphPad).

As for `Nc1ccn([C@@H]2O[C@H](COP(=O)(O)OP(=O)(O)OP(=O)(O)O)[C@@H](O)[C@H]2O)c(=O)n1` [CTP, cytidine nucleotide triphosphate], in the assay with control T-cells, the “reversion of the inhibition of T-cell proliferation by deazauridine” value is “fully reverted”. In the assay with CTPS1-deficient cells, the “CD25 expression of CTPS1-deficient cells” value is given as “recovered to a normal level” and the “proliferation of CTPS1-deficient cells” value is on record as “recovered to a normal level; also recorded: restored to normal level”.
Take `O=c1ccn([C@@H]2O[C@H](COP(=O)(O)OP(=O)(O)OP(=O)(O)O)[C@@H](O)[C@H]2O)c(=O)[nH]1` [UTP]: the “reversion of the inhibition of T-cell proliferation by deazauridine” value with control T-cells is given as “partially”.
In the case of `Nc1ccn([C@@H]2O[C@H](CO)[C@@H](O)[C@H]2O)c(=O)n1` [cytidine], in the assay with CTPS1-deficient cells, the “CD25 expression of CTPS1-deficient cells” value is on record as “recovered to a normal level” and the “proliferation of CTPS1-deficient cells” value is on record as “recovered to a normal level; also recorded: restored”.
